Measurements reported in the NIST ThermoML archive (doi:10.1007/s10765-012-1373-z).

Details: Liquid; for mass density: Buoyancy - hydrostatic balance; for viscosity: Falling or rolling sphere viscometry

CCCCCCC [heptane]
Details | mass density [kg/m3] | viscosity [mPa·s]
298.15 K, 98 kPa | 679.99 | 0.396
298.15 K, 24510 kPa | 702.85 | 0.4923
298.15 K, 49030 kPa | 718.61 | 0.602
298.15 K, 98060 kPa | 741.52 | 0.8489
298.15 K, 147100 kPa | 760.47 | 1.137
298.15 K, 196130 kPa | 780.16 | 1.493
298.15 K, 245160 kPa | 792.15 | 1.91
303.15 K, 98 kPa | 674.98 | 0.373
303.15 K, 24510 kPa | 697.11 | 0.4737
303.15 K, 49030 kPa | 713.79 | 0.5696
303.15 K, 98060 kPa | 739.05 | 0.8037
303.15 K, 147100 kPa | 759.49 | 1.071
303.15 K, 196130 kPa | 777.85 | 1.389
303.15 K, 245160 kPa | 789.56 | 1.744
323.11 K, 49030 kPa | 701.18 | 0.4816
323.13 K, 24510 kPa | 680.94 | 0.3966
323.2 K, 98060 kPa | 731.08 | 0.6613
323.2 K, 147100 kPa | 749.97 | 0.87
323.21 K, 196130 kPa | 768.38 | 1.112
323.25 K, 98 kPa | 659.16 | 0.3107
323.25 K, 245160 kPa | 783.33 | 1.378
362.8 K, 147100 kPa | 731.67 | 0.6488
362.83 K, 98060 kPa | 709.5 | 0.4956
362.85 K, 49030 kPa | 675.9 | 0.3626
362.87 K, 196130 kPa | 752.22 | 0.8089
362.92 K, 98 kPa | 622.63 | 0.2146
362.98 K, 245160 kPa | 769.76 | 0.9926
363.07 K, 24510 kPa | 654.31 | 0.2937
391.93 K, 147100 kPa | 717.73 | 0.531
392 K, 196130 kPa | 739.92 | 0.6621
392 K, 245160 kPa | 759.27 | 0.8047
392.04 K, 98060 kPa | 696.22 | 0.4119
393.01 K, 24510 kPa | 634.69 | 0.2366
393.14 K, 49030 kPa | 657.93 | 0.2965
422.17 K, 196130 kPa | 729 | 0.5591
422.24 K, 98060 kPa | 679.62 | 0.3479
422.26 K, 147100 kPa | 704.75 | 0.4464
422.58 K, 24510 kPa | 611.28 | 0.1951
422.6 K, 49030 kPa | 638.89 | 0.2476
423.04 K, 245160 kPa | 748.46 | 0.6699
452.91 K, 245160 kPa | 734.45 | 0.577
453.04 K, 196130 kPa | 716.18 | 0.4784
453.1 K, 147100 kPa | 689.71 | 0.3883
453.16 K, 98060 kPa | 666.38 | 0.3007
453.24 K, 49030 kPa | 621.56 | 0.2134
453.4 K, 24510 kPa | 589.05 | 0.1668
470.1 K, 49030 kPa | 611.78 | 0.2021
470.19 K, 24510 kPa | 574.55 | 0.1568
470.19 K, 98060 kPa | 658.7 | 0.2858
470.19 K, 147100 kPa | 685.13 | 0.3672
470.57 K, 196130 kPa | 709.79 | 0.4549
470.61 K, 245160 kPa | 729.17 | 0.5475
